GI50 and TGI data for six compounds are collected here from PubChem BioAssay (NCI).

Where “and” joins values, the source holds several entries; their conditions need not be identical. Equal values may be shown once.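 In this assay, cells in 96-well plates receive the compound at five concentrations for 48 hours. Endpoints are linearly interpolated between the surrounding concentrations. GI50: concentration for 50% inhibition of growth. TGI marks complete inhibition of growth.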

Holding throughout (experiment): inhibition of tumour cell growth, NCI panel, 48 h
Experiment [1] concerns KM12 colon.
The subject of experiment [2] is A498 renal.
For experiment [3], the system named is SN12C renal.
In experiment [4] the test system is HCT-116 colon.
The subject of experiment [5] is HCT-15 colon.
Experiment [6] deals with MCF7 breast.
The subject of experiment [7] is SK-MEL-2 melanoma.
For experiment [8], the system named is SW-620 colon.
Experiment [9] deals with UACC-62 melanoma.
The test system of experiment [10] is IGROV1 ovarian.

Turning to `C#CCN(Cc1nc2cc(C(F)(F)F)ccc2nc1-c1ccccc1)c1ccc(C)cc1`, the GI50 in experiment [1] is 9.94 µM; in experiment [2], 10.6 µM; in experiment [3], > 28.2 µM; in [4] it was 0.628 µM; in [5] it was 6.01 µM; in experiment [6] it was 2.38 µM. The GI50 in experiment [7] was 6.19 µM; in [8], 12.8 µM; in [9], 7.32 µM; in experiment [10], 6.13 µM. Also, the TGI in experiment [1] is > 24.6 µM; in experiment [2], 27.5 µM; in [3], > 59.9 µM; in experiment [4] it was 15.5 µM; in experiment [5], > 24.8 µM; in [6], > 59.1 µM. The TGI is 34.5 µM in experiment [7], > 100 µM in experiment [8], 27.9 µM in experiment [9] and > 64.9 µM in experiment [10].

On to `CC1=CCCC2C1(C)CCC(C)C2(C)Cc1cc(O)ccc1O` (stereo not drawn), for which the GI50 was 5.16 µM in experiment [1]; 13.1 µM in [3]; 9.85 µM in [4]; 6.04 µM in experiment [5]; 7.15 µM in [6]; 12.9 µM in experiment [8]. For the same compound, the GI50 is 13 µM in experiment [9] and 4.22 µM in experiment [10]. The TGI in [1] was 18.7 µM; in [2] it was 32.9 µM and 30.3 µM; in [3] it was 29.3 µM and 23.8 µM; in experiment [4], 24.8 µM and 15.7 µM; in experiment [5], 25.8 µM and 23.7 µM; in experiment [6], 21.7 µM and 19.8 µM. The TGI is 27.9 µM and 24 µM in experiment [7]; 33.3 µM and 23.3 µM in experiment [8]; 28.7 µM and 24.5 µM in [9]; 16.6 µM and 21.6 µM in experiment [10].

On to `N=C(N)SCc1c2ccccc2c(CSC(=N)N)c2ccccc12`, for which the GI50 in experiment [1] is 10.3 µM; in experiment [2], 7.42 µM; in experiment [3], 3 µM; in experiment [4], 2.59 µM; in experiment [5] it was 12.4 µM; in experiment [6], 1.54 µM. In addition, the GI50 in experiment [7] is 18 µM; in experiment [8], 3.75 µM; in experiment [9], 3.59 µM; in experiment [10] it was 18.2 µM. Also, the TGI in experiment [1] worked out at 23.4 µM; in [2] it was 22.9 µM; in experiment [3], 25.7 µM; in experiment [4], 16.6 µM; in [5], 32.4 µM; in experiment [6], 15.5 µM. Moreover, the TGI in [7] was 41.3 µM; in experiment [8], 19.7 µM; in experiment [9], 20.3 µM; in experiment [10] it was 78.4 µM.

Turning to `O=C1NC2C(=CC(O)C(O)C2O)c2cc3c(cc21)OCO3` (stereo not drawn), the GI50 in experiment [1] is 0.336 µM and 0.129 µM; in [2], 0.904 µM and 0.568 µM; in experiment [3], 0.156 µM; in [4] it was 0.282 µM and 0.101 µM; in experiment [5], 0.406 µM and 0.216 µM; in [6], 0.0495 µM. In addition, the GI50 in [7] was 0.305 µM; in experiment [8], 0.412 µM and 0.199 µM; in experiment [9], 0.266 µM; in experiment [10] it was 0.393 µM. For the same compound, the TGI in [1] was 1.75 µM and 3.53 µM; in experiment [2], 3.64 µM and 2.69 µM; in [3] it was 2.59 µM and 2.29 µM; in [4], 1.18 µM and 2.77 µM; in experiment [5] it was 9.97 µM and 6.41 µM; in experiment [6] it was 0.854 µM and 4.46 µM. Besides, the TGI is 2.95 µM and 1.43 µM in [7]; 4.07 µM and 19.9 µM in [8]; 2.56 µM and 1.65 µM in experiment [9]; 9.21 µM and 3.01 µM in experiment [10].

As to `COC(=O)C1=CO[C@@H](OC2OC(CO)C(O)C(O)C2O)[C@H]2[C@@H](C)[C@@H](O)[C@@H](O)[C@@H]12` (stereo partly drawn), the TGI in experiment [1], in experiment [2], in [3], in experiment [4], in [5] and in experiment [6] was > 100 µM in each case. Also, the TGI in experiment [7], in experiment [8], in experiment [9] and in [10] was > 100 µM in each case.

For the compound `CCOC(=O)Nc1nc2ccc(Br)cc2s1`, the GI50 in experiment [1], in experiment [2], in experiment [3], in experiment [4], in experiment [5] and in [6] was > 50 µM each time. Further, the GI50 in [7], in experiment [8], in experiment [9] and in experiment [10] was > 50 µM throughout. For the same compound, the TGI in [1], in experiment [2], in [3], in experiment [4], in experiment [5] and in experiment [6] was > 50 µM throughout. In addition, the TGI in experiment [7], in [8], in experiment [9] and in experiment [10] was > 50 µM throughout.
